The text below walks through data of patent US8637513B2, “Heterocycle phenyl amide T-type calcium channel antagonists” (Merck Sharp & Dohme Corp., priority 2007, dated 2014).

T1 sequence (Q9P0X4 whole entry): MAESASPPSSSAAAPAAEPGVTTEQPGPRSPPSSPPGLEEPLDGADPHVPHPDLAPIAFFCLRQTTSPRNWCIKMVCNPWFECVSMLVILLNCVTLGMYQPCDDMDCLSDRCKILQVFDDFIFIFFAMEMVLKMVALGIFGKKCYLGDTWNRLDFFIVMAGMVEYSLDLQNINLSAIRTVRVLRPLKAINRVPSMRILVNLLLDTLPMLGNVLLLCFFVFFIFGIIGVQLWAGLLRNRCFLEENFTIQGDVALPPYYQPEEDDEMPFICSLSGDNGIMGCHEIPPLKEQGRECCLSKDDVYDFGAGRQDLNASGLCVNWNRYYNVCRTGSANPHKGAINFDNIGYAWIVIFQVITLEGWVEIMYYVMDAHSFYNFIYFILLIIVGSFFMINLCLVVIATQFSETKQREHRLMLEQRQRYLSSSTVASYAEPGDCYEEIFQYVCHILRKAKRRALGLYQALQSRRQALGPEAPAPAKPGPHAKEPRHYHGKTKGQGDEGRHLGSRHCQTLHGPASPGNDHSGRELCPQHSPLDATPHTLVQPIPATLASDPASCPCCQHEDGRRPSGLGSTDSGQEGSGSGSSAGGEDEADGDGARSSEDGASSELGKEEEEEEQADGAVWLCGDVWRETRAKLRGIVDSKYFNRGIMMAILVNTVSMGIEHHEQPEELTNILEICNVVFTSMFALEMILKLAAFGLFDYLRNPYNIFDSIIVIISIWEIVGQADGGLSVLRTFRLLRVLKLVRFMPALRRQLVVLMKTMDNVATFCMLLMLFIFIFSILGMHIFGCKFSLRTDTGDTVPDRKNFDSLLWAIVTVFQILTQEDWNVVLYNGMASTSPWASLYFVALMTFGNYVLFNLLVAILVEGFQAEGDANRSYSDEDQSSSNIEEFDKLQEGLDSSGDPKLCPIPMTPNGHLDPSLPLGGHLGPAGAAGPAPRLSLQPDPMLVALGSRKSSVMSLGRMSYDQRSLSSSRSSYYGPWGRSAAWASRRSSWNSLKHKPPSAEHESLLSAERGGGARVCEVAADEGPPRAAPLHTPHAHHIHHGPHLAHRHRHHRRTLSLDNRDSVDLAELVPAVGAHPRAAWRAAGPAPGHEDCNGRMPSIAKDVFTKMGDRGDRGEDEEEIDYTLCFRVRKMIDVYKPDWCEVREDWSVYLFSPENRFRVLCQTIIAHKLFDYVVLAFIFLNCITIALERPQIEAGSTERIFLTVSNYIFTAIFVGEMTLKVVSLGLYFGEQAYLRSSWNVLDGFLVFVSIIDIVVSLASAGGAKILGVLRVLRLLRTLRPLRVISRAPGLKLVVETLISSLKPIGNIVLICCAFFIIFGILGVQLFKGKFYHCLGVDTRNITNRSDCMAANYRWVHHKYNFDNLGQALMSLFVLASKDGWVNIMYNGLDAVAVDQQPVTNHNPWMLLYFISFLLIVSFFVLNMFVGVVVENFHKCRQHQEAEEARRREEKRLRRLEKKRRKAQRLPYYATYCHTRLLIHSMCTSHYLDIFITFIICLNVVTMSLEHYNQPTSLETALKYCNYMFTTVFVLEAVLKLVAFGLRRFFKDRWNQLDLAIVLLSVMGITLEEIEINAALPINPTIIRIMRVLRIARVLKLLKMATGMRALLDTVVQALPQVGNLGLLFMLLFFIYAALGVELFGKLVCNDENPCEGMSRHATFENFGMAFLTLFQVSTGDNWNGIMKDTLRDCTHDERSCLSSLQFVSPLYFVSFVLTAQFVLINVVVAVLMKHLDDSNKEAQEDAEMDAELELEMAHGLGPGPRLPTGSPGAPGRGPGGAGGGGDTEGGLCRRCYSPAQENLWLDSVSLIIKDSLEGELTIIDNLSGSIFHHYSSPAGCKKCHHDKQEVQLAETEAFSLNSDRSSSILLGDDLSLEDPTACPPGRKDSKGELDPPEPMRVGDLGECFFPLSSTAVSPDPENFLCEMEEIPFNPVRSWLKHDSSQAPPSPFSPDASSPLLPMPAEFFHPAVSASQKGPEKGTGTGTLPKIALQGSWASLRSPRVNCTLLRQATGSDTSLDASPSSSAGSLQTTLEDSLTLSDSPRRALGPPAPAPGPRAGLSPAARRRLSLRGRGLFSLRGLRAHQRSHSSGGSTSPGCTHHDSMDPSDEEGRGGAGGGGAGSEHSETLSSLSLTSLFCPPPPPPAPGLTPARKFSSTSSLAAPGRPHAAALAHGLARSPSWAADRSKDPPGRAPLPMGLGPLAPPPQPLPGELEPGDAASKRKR

The assay addresses T1, T-type channel alpha1I (CaV 3.3) (Homo sapiens, UniProt Q9P0X4).
T1 construct: expressed in transfected cells; host or cells: HEK 293 cells, tetracycline-inducible expression
Briefly: FLIPR Ca2+ Flux Assay. The note with it: alpha1I subtype; read-out: FLIPR alpha1I IP. The class given is cell-based. Background: Calcium assays in cells follow changes in intracellular calcium, usually with a dye or a luminescent sensor.
On to `C[C@@H](NC(=O)Cc1ccc(-c2cccc3cncnc23)cc1)c1ccc(OCC(F)(F)F)cn1` [Example 1, 2-(4-Quinazolin-8-ylphenyl)-N-{(1R)-1-[5-(2,2,2-trifluoroethoxy)pyridin-2-yl]ethyl}acetamide], for which the IC50 came to 19 nM.

As to `Cc1nccnc1-c1ccc(CC(=O)N[C@H](C)c2ccc(OCC(F)(F)F)cn2)cc1` [Example 2, 2-[4-(3-methylpyrazin-2-yl)phenyl]-N-{(1R)-1-[5-(2,2,2-trifluoroethoxy)pyridin-2-yl]ethyl}acetamide], the IC50 amounted to 24 nM.

Turning to `C[C@@H](NC(=O)Cc1ccc(-c2nccnc2C2CC2)cc1)c1ccc(OCC(F)(F)F)cn1` [Example 6, 2-[4-(3-Cyclopropylpyrazin-2-yl)phenyl]-N-{(1R)-1-[5-(2,2,2-trifluoroethoxy)pyridin-2-yl]ethyl}acetamide], the IC50 stood at 47 nM.

As to `C[C@@H](NC(=O)Cc1ccc(-c2cnccn2)cc1)c1ccc(OCC(F)(F)F)cn1` [Example 5, 2-(4-Pyrazin-2-ylphenyl)-N-{(1R)-1-[5-(2,2,2-trifluoroethoxy)pyridin-2-yl]ethyl}acetamide], the IC50 came to 30 nM.

In the case of `C[C@@H](NC(=O)Cc1ccc(-c2cc3ccccc3n2C)cc1)c1ccc(OCC(F)(F)F)cn1` [Example 3, 2-[4-(1-Methyl-1H-indol-2-yl)phenyl]-N-{(1R)-1-[5-(2,2,2-trifluoroethoxy)pyridin-2-yl]ethyl}acetamide], the IC50 was 36 nM.

Take `C[C@@H](NC(=O)Cc1ccc(-c2cnn3ncccc23)cc1)c1ccc(OCC(F)(F)F)cn1` [Example 4, 2-(4-Pyrazolo[1,5-b]pyridazin-3-ylphenyl)-N-{(1R)-1-[5-(2,2,2-trifluoroethoxy)pyridin-2-yl]ethyl}acetamide]: the IC50 worked out at 5 nM.

As for `C[C@@H](NC(=O)Cc1ccc(-n2nc(C3CC3)c3ccccc32)cc1)c1ccc(OCC(F)(F)F)cn1` [Example 10], the IC50 amounted to 73 nM.

`CC1=NOC(C)(c2ccc(CC(=O)N[C@H](C)c3ccc(OCC(F)(F)F)cn3)cc2)C1` (stereo partly drawn) [Example 7, 2-[4-(3,5-Dimethyl-4,5-dihydro-isoxazol-5-yl)phenyl]-N-{(1R)-1-[5-(2,2,2-trifluoroethoxy)pyridin-2-yl]ethyl}acetamide]: the IC50 is 41 nM.

Consider `C[C@@H](NC(=O)Cc1ccc(Oc2nccs2)cc1)c1ccc(OCC(F)(F)F)cn1` [Example 9], for which the IC50 was determined as 46 nM.

Consider `C[C@@H](NC(=O)Cc1ccc(OC2CCOC2)cc1)c1ccc(OCC(F)(F)F)cn1` (stereo partly shown) [Example 8], for which the IC50 is 91 nM.
